# Laboratory results reported in US20250040548A1, “Herbicidal compositions comprising saflufenacil” (BASF SF, priority 2023, published 2025).
# Key:
# [1] = tested on: ZEAMX* (non-PPOi herbicide tolerant); experiment: Post-emergence application in field trials (Examples 2 and 3); assay type: in vivo, Zea mays; settings: B-1 25 g ai/ha, 21 DAT
# Method: (§1) In the examples below, using the method of S. R. Colby (1967) “Calculating synergistic and antagonistic responses of herbicide combinations”, Weeds 15, p. 22ff., the value E, which is expected if the activity of the individual active compounds is only additive, was calculated.
# (§2) [formula] • where • X=percent activity using active herbicide A at an application rate a; • Y=percent activity using active saflufenacil at an application rate b; • E=expected activity (in %) by A+B at application rates a+b.
# (§3) If the value found experimentally is higher than the value E calculated according to Colby, a synergistic effect is present.
# (§4) On field test sites, natural weed infestation or seeded weeds were treated post-emergence of the weeds.
# (§5) For the post emergence treatment, the weedy plants were treated as indicated below. The herbicidal compositions were, together with the adjuvant(s) as indicated, suspended or emulsified in water (200 l/ha unless indicated otherwise) as distribution medium and sprayed with commercial flat fan nozzles.
# (§6) In the following experiments, the herbicidal activity for the individual herbicidal compositions (solo and mixture applications) was assessed the indicated days after treatment (DAT). The assessments for the damage on undesired weeds caused by the composition was carried out using a scale from 0 to 100%, compared to the untreated control plants. Here, 0 means no damage and 100 means complete destruction of the plants.
# as §5, with “I/ha” for “l/ha”
# COMBE [2] = experiment: as above; assay type: in vivo, Commelina benghalensis; settings: B-1 25 g ai/ha, 21 DAT, growth stage 11-14, height 2-10 cm, 0.5% MSO
# Method: as §1, §2, §3, §4, §5
# as §6, with “Here, 0 means no damage and 100 means complete destruction of the plants.” left out
# EPHHL = experiment: as above; assay type: in vivo, Euphorbia heterophylla; settings: B-1 25 g ai/ha, 21 DAT, growth stage 12-16, height 5-15 cm, 0.5% MSO
# Method: as §1, §2, §3, §4, §5
# as §6, with “Here, 0 means no damage and 100 means complete destruction of the plants.” left out
# SETVI = experiment: as above; assay type: in vivo, Setaria viridis
# Method: as §1, §2, §3, §4, §5, §6
# as §5, with “I/ha” for “l/ha”
# IPOTR = experiment: as above; assay type: in vivo, Ipomoea triloba; settings: growth stage 40-41, height 65-75 cm, B-1 solo 25 g ai/ha, 21 DAT, 1% Dash ® HC
# Method: as §1, §2, §3, §4, §5
# as §6, with “Here, 0 means no damage and 100 means complete destruction of the plants.” left out
# BRADC = experiment: as above; assay type: in vivo, Brachiaria decumbens; settings: growth stage 22-23, height 32-38 cm, B-1 solo 25 g ai/ha, 21 DAT, 1% Dash ® HC
# Method: as §1, §2, §3, §4, §5, §6
# as §5, with “I/ha” for “l/ha”
# COMBE [3] = experiment: Post-emergence application in greenhouse trials; assay type: in vivo, Commelina benghalensis; settings: growth stage 21, 1% MSO
# Method: as §1, §2, §3
# (§7) The culture containers used were plastic pots containing loamy sand with approximately 3.0% of humus as substrate. The seeds of the test plants were sown separately for each species.
# (§8) For the post-emergence treatment, the test plants were grown to a plant height of from 3 to 15 cm, depending on the plant habit, and only then treated with the active compounds which had been suspended or emulsified in water. To this end, the test plants were either sown directly, and grown in the same containers, or they were first grown separately as seedlings and transplanted into the test containers a few days prior to treatment.
# (§9) Depending on the species, the plants were kept at 10-25° C. and 20-35° C., respectively.
# (§10) The test period extended over 2 to 4 weeks. During this time, the plants were tended and their response to the individual treatments was evaluated.
# (§11) Evaluation was carried out using a scale from 0 to 100. 100 means no emergence of the plants, or complete destruction of at least the above-ground parts, and 0 means no damage or normal course of growth. A good herbicidal activity is given at values of at least 70, and very good herbicidal activity is given at values of at least 85.
# (§12) Unless indicated otherwise, herbicide A and saflufenacil were formulated (50 g/I) and applied with addition of 1% MSO (methylated seed oil) as adjuvant. In the greenhouse trials, the solvent used was water (200 I/ha).
# AVEST = experiment: Post-emergence application in field trials (Examples 2 and 3); assay type: in vivo, Avena stirilis; settings: growth stage 12-22, B-1 solo 25 g ai/ha, 14 DAT, 1% v/ MSO
# Method: as §1, §2, §3, §4, §5
# as §6, with “Here, 0 means no damage and 100 means complete destruction of the plants.” left out
# ERISS = experiment: as above; assay type: in vivo, Erigeron sp.; settings: B-1 25 g ai/ha, 14 DAT, height 30-50 cm, 0.5% v/v MSO
# Method: as §1, §2, §3, §4, §5, §6
# as §5, with “I/ha” for “l/ha”
# [4] = tested on: HORVS* (non-PPOi herbicide tolerant); experiment: as above; assay type: in vivo, Hordeum vulgare; settings: 1% v/v MSO
# Method: as §1, §2, §3, §4, §5, §6
# as §5, with “I/ha” for “l/ha”
# KCHSC = experiment: Post-emergence application in greenhouse trials; assay type: in vivo, Kochia scoparia; settings: growth stage 33, 1% MSO
# Method: as §1, §2, §3, §7, §8, §9, §10, §11, §12
# LAMAN = experiment: Post-emergence application in field trials (Examples 2 and 3); assay type: in vivo, Lamium amplexicaule; settings: height 3-18 cm, B-1 solo 25 g ai/ha, 21 DAT, 1% v/v MSO and 1% AMS (ammonium sulfate)
# Method: as §1, §2, §3, §4, §5
# as §6, with “Here, 0 means no damage and 100 means complete destruction of the plants.” left out
# AVEFA = experiment: as above; assay type: in vivo, Avena fatua; settings: 1% v/v MSO
# Method: as §1, §2, §3, §4, §5, §6
# as §5, with “I/ha” for “l/ha”
# DIGIN = experiment: as above; assay type: in vivo, Digitaria insularis
# Method: as §1, §2, §3, §4, §5, §6
# as §5, with “I/ha” for “l/ha”
smiles,measurement,setting,value
"CC(C)N(C)S(=O)(=O)NC(=O)c1cc(-n2c(=O)cc(C(F)(F)F)n(C)c2=O)c(F)cc1Cl [B-1, saflufenacil]",% Herbicidal activity,"[1]; growth stage 15, 1% v/v MSO and 1% w/v ammoniumsulfate",15%
same,% Herbicidal activity,"[1]; growth stage 18, 0.5% MSO",0%
same,% Herbicidal activity,COMBE [2],5%
same,% Herbicidal activity,EPHHL,5%
same,% Herbicidal activity,"SETVI; B-1 25 g ai/ha, 19 DAT, growth stage 13-19, height 2.5-10 cm, field, 1% v/v MSO and 1% w/v ammoniumsulfate",22%
same,% Herbicidal activity,"SETVI; SETVI, height 50-61 cm, B-1 solo 25 g ai/ha, 42 DAT, 1% v/v MSO and 2.5% AMSOL ®",33%
same,% Herbicidal activity,IPOTR,43%
same,% Herbicidal activity,BRADC,12%
same,% Herbicidal activity,"COMBE [3]; B-1 0.2 g ai/ha, 6 DAT",15%
same,% Herbicidal activity,"COMBE [3]; B-1 0.2 g ai/ha, 20 DAT",5%
same,% Herbicidal activity,"COMBE [3]; B-1 0.8 g ai/ha, 20 DAT",75%
same,% Herbicidal activity,AVEST,0%
same,% Herbicidal activity,ERISS,63%
same,% Herbicidal activity,"[4]; B-1 18 g ai/ha, 29 DAT, growth stage 15-24, height 25-45 cm, field, 100 l/ha water",0%
same,% Herbicidal activity,"[4]; HORVS* (non-PPOi herbicide tolerant), growth stage 15, height 31-43 cm, B-1 solo 25 g ai/ha, 16 DAT",3%
same,% Herbicidal activity,"KCHSC; B-1 0.2 g ai/ha, 6 DAT",15%
same,% Herbicidal activity,"KCHSC; B-1 0.3 g ai/ha, 6 DAT",35%
same,% Herbicidal activity,"KCHSC; B-1 0.8 g ai/ha, 6 DAT",60%
same,% Herbicidal activity,"KCHSC; B-1 0.8 g ai/ha, 20 DAT",70%
same,% Herbicidal activity,"KCHSC; B-1 0.9 g ai/ha, 6 DAT",60%
same,% Herbicidal activity,"KCHSC; B-1 1 g ai/ha, 6 DAT",80%
same,% Herbicidal activity,"KCHSC; B-1 1 g ai/ha, 20 DAT",80%
same,% Herbicidal activity,LAMAN,40%
same,% Herbicidal activity,"AVEFA; AVEFA, growth stage 15-16, height 25-38 cm, B-1 solo 25 g ai/ha, 16 DAT",3%
same,% Herbicidal activity,"AVEFA; B-1 18 g ai/ha, 28 DAT, growth stage 14-15, height 9-16 cm, field, 100 l/ha water",0%
same,% Herbicidal activity,"AVEFA; B-1 18 g ai/ha, 29 DAT, growth stage 14-23, height 24-40 cm, field, 100 l/ha water",0%
same,% Herbicidal activity,"DIGIN; B-1 25 g ai/ha, 7 DAT, height 60-80 cm, field, 0.5% v/v MSO",8%
same,% Herbicidal activity,"DIGIN; DIGIN, growth stage 65, height 40-50 cm, B-1 solo 25 g ai/ha, 21 DAT, 1% v/v MSO",5%
